Experimental data taken from patent US5723109A, “Use of salicyclic acid derivatives for depigmenting the skin” (L'Oreal, priority 1995, dated 1998).

Test system: tyrosinase from human melanocytes
Assay: dopa-oxidase activity of tyrosinase from human melanocytes
Assay type: cell-based
Procedure: Human melanocytes were prepared and cultured and then introduced into media containing different concentrations of 5-(n-octanoyl)salicylic acid (0.5 μM, 1 μM, 2 μM and 5 μM).
After three days, the melanocytes were "trypsinizated" in a 0.05%/0.02% trypsin/EDTA mixture in a phosphate buffer (50 mM at pH 6.8), washed three times in phosphate buffer containing 1% (w/v) of TRITON X-100 and subjected to ultrasound. After centrifuging, samples were withdrawn and mixed with 5 mM L-DOPA in phosphate buffer. The tyrosinase activity was evaluated by spectrophotometry. The increase in the absorbance at 475 nm is due to the formation of dopachrome from 5 mM DOPA being measured. The absorbance was read on a microplate reader at 25° C. for 60 min.
The activity of the cellular tyrosinase was measured with respect to a calibration range prepared with commercially available tyrosinase.

SMILES: CCCCCCCC(=O)c1ccc(O)c(C(=O)O)c1 [5-(n-octanoyl)salicylic acid]
- decrease of dopa-oxidase activity of the tyrosinase from the melanocytes (concentration of 5 μM, three days): more particularly pronounced
- dopa-oxidase activity of the tyrosinase from the melanocytes (percentage of activity with respect to the starting activity, FIG. 1) (human melanocytes cultured three days with 0.5 μM, 1 μM, 2 μM and 5 μM, 5 mM L-DOPA, absorbance at 475 nm): significantly decreases
